# Experimental data as given in doi:10.1101/2020.06.27.175109v1 (biorxiv, 2020).
# What was measured:
# [1] = molecular target: T1, CK2α’ (full-length, NanoLuc fusion) (Homo sapiens, UniProt P19784); experiment: NanoBRET tracer displacement, intact HEK293T; type: cell-based; conditions: intact cells, […] h, […] °C, tracer competition
# [2] = molecular target: T2, CK2α (full-length, NanoLuc fusion) (Homo sapiens, UniProt P68400); experiment: NanoBRET tracer displacement, intact HEK293T; type: cell-based; conditions: intact cells, […] h, […] °C, tracer competition
# [3] = molecular target: T1, CK2α’ (full-length, NanoLuc fusion); experiment: cell-based; design: species or system HEK293T
# [4] = molecular target: T2, CK2α (full-length, NanoLuc fusion); experiment: cell-based; design: species or system HEK293T
# T1 sequence (P19784 whole entry, the tested form may be a part): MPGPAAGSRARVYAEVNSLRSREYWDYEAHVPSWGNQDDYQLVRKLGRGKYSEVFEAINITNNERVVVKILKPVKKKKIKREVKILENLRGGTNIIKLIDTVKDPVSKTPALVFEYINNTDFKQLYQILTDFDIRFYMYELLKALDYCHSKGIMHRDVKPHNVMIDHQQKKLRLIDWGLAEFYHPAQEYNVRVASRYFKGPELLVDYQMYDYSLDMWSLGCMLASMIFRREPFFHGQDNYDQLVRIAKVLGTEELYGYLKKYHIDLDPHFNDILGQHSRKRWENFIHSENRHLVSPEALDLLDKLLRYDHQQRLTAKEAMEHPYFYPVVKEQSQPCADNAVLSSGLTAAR
# T2 sequence (P68400 whole entry, the tested form may be a part): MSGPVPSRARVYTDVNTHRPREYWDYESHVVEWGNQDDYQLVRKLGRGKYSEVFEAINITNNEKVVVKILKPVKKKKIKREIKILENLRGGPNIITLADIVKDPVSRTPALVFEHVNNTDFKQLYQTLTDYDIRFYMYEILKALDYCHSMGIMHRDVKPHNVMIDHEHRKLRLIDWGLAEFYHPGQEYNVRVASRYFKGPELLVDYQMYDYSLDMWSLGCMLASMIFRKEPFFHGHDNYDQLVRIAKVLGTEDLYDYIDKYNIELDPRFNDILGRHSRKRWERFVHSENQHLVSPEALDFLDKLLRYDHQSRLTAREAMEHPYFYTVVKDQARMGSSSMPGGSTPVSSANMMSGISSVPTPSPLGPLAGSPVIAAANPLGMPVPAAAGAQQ
SMILES,IC50 [1] [µM],IC50 [2] [µM],IC50 [3] [µM],IC50 [4] [µM]
"O=C(O)c1ccc2cc1OCCOCCNc1ccn3ncc-2c3n1 [compound 34, 7,10-Dioxa-13,17,18,21-tetraazatetracyclo[12.5.2.1^2,^6.0^17,^20]docosa-1(20),2,4,6(22),14(21),15,18-heptaene-5-carboxylic acid]",16.2,5.7,–,–
"CC(C)(C)OC(=O)N(CCOCCO)c1ccn2ncc(-c3ccc(C#N)c(O)c3)c2n1 [compound 23, tert-Butyl N-[3-(4-cyano-3-hydroxyphenyl)pyrazolo[1,5-a]pyrimidin-5-yl]-N-[2-(2-hydroxyethoxy)ethyl]carbamate]",–,–,> 50,> 50
"CC(C)(C)OC(=O)N1CCOCCOc2cc(ccc2C(=O)O)-c2cnn3ccc1nc23 [compound 32, 13-[(tert-Butoxy)carbonyl]-7,10-dioxa-13,17,18,21-tetraazatetracyclo[12.5.2.1^2,^6.0^17,^20]docosa-1(20),2,4,6(22),14(21),15,18-heptaene-5-carboxylic acid]",7.39,–,–,–
